According to the supplement of paper PMC6045584:
± gives the standard deviation of the averaged measurements.

Compound: COCC[n+]1c2c(n(Cc3cnccn3)c1C)C(=O)c1ccccc1C2=O [YM155]
Assay: surviving fraction relative to DMSO-only wells; higher = less growth inhibition
Settings: 50 nM; exposure time: 5 days
Outline: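 Surviving fraction was calculated by normalising CellTiter-Glo luminescence to the median of DMSO-only wells. Tumour cell lines in log phase were seeded in 384-well plates at 250–500 cells per well, and 24 hours later were exposed continuously for five days to inhibitors at 0.5, 1, 5, 10, 50, 100, 500 and 1000 nM.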

Test System	surviving fraction
22RV1 PROSTATE	0.151 ± 0.16
93VU HEADNECK	0.839 ± 0.034
143B BONE	0.0735 ± 0.0064
A549 LUNG	0.191 ± 0.005
ASKA SYNOVIAL	0.227 ± 0.017
BT20 BREAST	0.028 ± 0.0017
BT549 BREAST	0.256 ± 0.083
CADOES1 SOFT TISSUE	1.02 ± 0.056
CAL51 BREAST	0.0278 ± 0.001
CAL72 BONE	0.058 ± 0.005
CAL120 BREAST	0.0243 ± 0.001
CASKI CERVIX	0.063 ± 0.009
CCK81 LARGE INTESTINE	0.674 ± 0.022
CHLA90 AUTONOMIC GANGLIA	0.106 ± 0.028
CME SYNOVIAL	0.232 ± 0.023
COLO320DM LARGE INTESTINE	0.708 ± 0.059
DU4475 BREAST	0.108 ± 0.025
G292 BONE	0.251 ± 0.0065
H23 LUNG	0.0233 ± 0.0021
HCC38 BREAST	0.043 ± 0.0056
HCC78 LUNG	0.0407 ± 0.0029

Test System	surviving fraction
HCC202 BREAST	0.411 ± 0.17
HCC1806 BREAST	0.064 ± 0.0027
HMLE3 BREAST	0.0257 ± 0.00058
HMT3552 BREAST	0.17 ± 0.027
HOS BONE	0.0267 ± 0.00058
HOSMNG BONE	0.198 ± 0.0064
HS57T BREAST	0.287 ± 0.029
HSSYII SYNOVIAL	0.0352 ± 0.004
HT1080 SOFT TISSUE	0.063 ± 0.0027
HU09 BONE	0.5387 ± 0.004
HUO3N1 BONE	0.529 ± 0.14
JIMT1 BREAST	0.0545 ± 0.0027
LM7 BONE	0.039 ± 0.0056
LNCAP PROSTATE	0.227 ± 0.032
MDAMB134 BREAST	0.775 ± 0.051
MDAMB157 BREAST	0.0573 ± 0.024
MDAMB231 BREAST	0.0386 ± 0.0022
MDAMB361 BREAST	0.224 ± 0.0076
MDAMB436 BREAST	0.195 ± 0.05
MDAMB468 BREAST	0.034 ± 0.002

Same assay, conditions: 100 nM; exposure time: 5 days

Test System	surviving fraction
22RV1 PROSTATE	0.165 ± 0.23
93VU HEADNECK	0.815 ± 0.06
143B BONE	0.0375 ± 0.0021
A549 LUNG	0.12 ± 0.0047
ASKA SYNOVIAL	0.195 ± 0.017
BT20 BREAST	0.025 ± 0.0027
BT549 BREAST	0.0713 ± 0.018
CADOES1 SOFT TISSUE	0.934 ± 0.071
CAL51 BREAST	0.0232 ± 0.00058
CAL72 BONE	0.0473 ± 0.0047
CAL120 BREAST	0.0215 ± 0.00087
CASKI CERVIX	0.0337 ± 0.0011
CCK81 LARGE INTESTINE	0.798 ± 0.073
CHLA90 AUTONOMIC GANGLIA	0.0633 ± 0.013
CME SYNOVIAL	0.206 ± 0.0035
COLO320DM LARGE INTESTINE	0.528 ± 0.057
DU4475 BREAST	0.0437 ± 0.008
G292 BONE	0.194 ± 0.007
H23 LUNG	0.02 ± 0.0017
HCC38 BREAST	0.031 ± 0.002
HCC78 LUNG	0.0247 ± 0.004

Test System	surviving fraction
HCC202 BREAST	0.231 ± 0.037
HCC1806 BREAST	0.05 ± 0.0044
HMLE3 BREAST	0.0227 ± 0.00058
HMT3552 BREAST	0.0797 ± 0.0055
HOS BONE	0.0197 ± 0.00058
HOSMNG BONE	0.132 ± 0.017
HS57T BREAST	0.182 ± 0.013
HSSYII SYNOVIAL	0.027 ± 0.0035
HT1080 SOFT TISSUE	0.0373 ± 0.0021
HU09 BONE	0.374 ± 0.016
HUO3N1 BONE	0.477 ± 0.046
JIMT1 BREAST	0.0323 ± 0.0027
LM7 BONE	0.0237 ± 0.00058
LNCAP PROSTATE	0.069 ± 0.0044
MDAMB134 BREAST	0.634 ± 0.13
MDAMB157 BREAST	0.031 ± 0.003
MDAMB231 BREAST	0.0352 ± 0.002
MDAMB361 BREAST	0.191 ± 0.022
MDAMB436 BREAST	0.115 ± 0.031
MDAMB468 BREAST	0.0367 ± 0.0031

Same assay, conditions: 500 nM; exposure time: 5 days

Test System	surviving fraction
22RV1 PROSTATE	0.101 ± 0.14
93VU HEADNECK	0.193 ± 0.011
143B BONE	0.022 ± 0.0014
A549 LUNG	0.024
ASKA SYNOVIAL	0.194 ± 0.011
BT20 BREAST	0.019 ± 0.002
BT549 BREAST	0.029 ± 0.008
CADOES1 SOFT TISSUE	0.852 ± 0.054
CAL51 BREAST	0.019 ± 0.00087
CAL72 BONE	0.0423 ± 0.0029
CAL120 BREAST	0.016 ± 0.00087
CASKI CERVIX	0.0223 ± 0.0015
CCK81 LARGE INTESTINE	0.719 ± 0.036
CHLA90 AUTONOMIC GANGLIA	0.025 ± 0.0027
CME SYNOVIAL	0.189 ± 0.0055
COLO320DM LARGE INTESTINE	0.231 ± 0.013
DU4475 BREAST	0.0273 ± 0.0015
G292 BONE	0.0688 ± 0.0042
H23 LUNG	0.0163 ± 0.0011
HCC38 BREAST	0.0247 ± 0.0021
HCC78 LUNG	0.016

Test System	surviving fraction
HCC202 BREAST	0.0315 ± 0.00071
HCC1806 BREAST	0.024
HMLE3 BREAST	0.018 ± 0.001
HMT3552 BREAST	0.0473 ± 0.0035
HOS BONE	0.0193 ± 0.00058
HOSMNG BONE	0.0837 ± 0.04
HS57T BREAST	0.0527 ± 0.0015
HSSYII SYNOVIAL	0.017 ± 0.0013
HT1080 SOFT TISSUE	0.0277 ± 0.00058
HU09 BONE	0.161 ± 0.0055
HUO3N1 BONE	0.137 ± 0.0093
JIMT1 BREAST	0.0275 ± 0.0013
LM7 BONE	0.0197 ± 0.00058
LNCAP PROSTATE	0.0267 ± 0.0055
MDAMB134 BREAST	0.567 ± 0.0014
MDAMB157 BREAST	0.0297 ± 0.0047
MDAMB231 BREAST	0.0302 ± 0.00043
MDAMB361 BREAST	0.103 ± 0.0066
MDAMB436 BREAST	0.0377 ± 0.0074
MDAMB468 BREAST	0.0353 ± 0.0065

Same assay, conditions: 1000 nM; exposure time: 5 days

Test System	surviving fraction
22RV1 PROSTATE	0.121 ± 0.16
93VU HEADNECK	0.123 ± 0.027
143B BONE	0.0265 ± 0.00071
A549 LUNG	0.028
ASKA SYNOVIAL	0.243 ± 0.017
BT20 BREAST	0.027 ± 0.002
BT549 BREAST	0.0307 ± 0.0023
CADOES1 SOFT TISSUE	0.881 ± 0.064
CAL51 BREAST	0.024 ± 0.0005
CAL72 BONE	0.054 ± 0.0044
CAL120 BREAST	0.023 ± 0.0017
CASKI CERVIX	0.0267 ± 0.0015
CCK81 LARGE INTESTINE	0.801 ± 0.13
CHLA90 AUTONOMIC GANGLIA	0.0273 ± 0.0015
CME SYNOVIAL	0.27 ± 0.029
COLO320DM LARGE INTESTINE	0.201 ± 0.012
DU4475 BREAST	0.0337 ± 0.0038
G292 BONE	0.0473 ± 0.0024
H23 LUNG	0.0227 ± 0.0015
HCC38 BREAST	0.0297 ± 0.0011
HCC78 LUNG	0.0187 ± 0.0025

Test System	surviving fraction
HCC202 BREAST	0.0335 ± 0.0021
HCC1806 BREAST	0.0257 ± 0.0015
HMLE3 BREAST	0.0213 ± 0.00058
HMT3552 BREAST	0.0537 ± 0.00058
HOS BONE	0.0243 ± 0.00058
HOSMNG BONE	0.061 ± 0.0036
HS57T BREAST	0.0473 ± 0.0047
HSSYII SYNOVIAL	0.0215 ± 0.0017
HT1080 SOFT TISSUE	0.0297 ± 0.00058
HU09 BONE	0.0983 ± 0.0055
HUO3N1 BONE	0.0927 ± 0.0065
JIMT1 BREAST	0.0318 ± 0.0055
LM7 BONE	0.025 ± 0.0017
LNCAP PROSTATE	0.0267 ± 0.0015
MDAMB134 BREAST	0.435 ± 0.064
MDAMB157 BREAST	0.039 ± 0.0046
MDAMB231 BREAST	0.0372 ± 0.0043
MDAMB361 BREAST	0.0887 ± 0.0074
MDAMB436 BREAST	0.0453 ± 0.013
MDAMB468 BREAST	0.0377 ± 0.0021
